Data as given in patent US6455248B1, “Reagents and kits for detecting fungal pathogens in a biological sample” (Miami University, priority 1996, dated 2002).

Columns and labels:
[1] = biological target: T1, α-aminoadipate reductase (AAR) (Candida albicans, UniProt Q12572); assay: Feedback inhibition of aminoadipate reductase activity in dialyzed cell extract; type: biochemical; details: for AAR activity: cell extract alone 19.76
T1 construct: The crude extracts were dialyzed and used as the enzyme source for the AAR activity; endogenous in cells; host or cells: C. albicans cells, dialyzed crude extract
T1 sequence (Q12572 1-1391): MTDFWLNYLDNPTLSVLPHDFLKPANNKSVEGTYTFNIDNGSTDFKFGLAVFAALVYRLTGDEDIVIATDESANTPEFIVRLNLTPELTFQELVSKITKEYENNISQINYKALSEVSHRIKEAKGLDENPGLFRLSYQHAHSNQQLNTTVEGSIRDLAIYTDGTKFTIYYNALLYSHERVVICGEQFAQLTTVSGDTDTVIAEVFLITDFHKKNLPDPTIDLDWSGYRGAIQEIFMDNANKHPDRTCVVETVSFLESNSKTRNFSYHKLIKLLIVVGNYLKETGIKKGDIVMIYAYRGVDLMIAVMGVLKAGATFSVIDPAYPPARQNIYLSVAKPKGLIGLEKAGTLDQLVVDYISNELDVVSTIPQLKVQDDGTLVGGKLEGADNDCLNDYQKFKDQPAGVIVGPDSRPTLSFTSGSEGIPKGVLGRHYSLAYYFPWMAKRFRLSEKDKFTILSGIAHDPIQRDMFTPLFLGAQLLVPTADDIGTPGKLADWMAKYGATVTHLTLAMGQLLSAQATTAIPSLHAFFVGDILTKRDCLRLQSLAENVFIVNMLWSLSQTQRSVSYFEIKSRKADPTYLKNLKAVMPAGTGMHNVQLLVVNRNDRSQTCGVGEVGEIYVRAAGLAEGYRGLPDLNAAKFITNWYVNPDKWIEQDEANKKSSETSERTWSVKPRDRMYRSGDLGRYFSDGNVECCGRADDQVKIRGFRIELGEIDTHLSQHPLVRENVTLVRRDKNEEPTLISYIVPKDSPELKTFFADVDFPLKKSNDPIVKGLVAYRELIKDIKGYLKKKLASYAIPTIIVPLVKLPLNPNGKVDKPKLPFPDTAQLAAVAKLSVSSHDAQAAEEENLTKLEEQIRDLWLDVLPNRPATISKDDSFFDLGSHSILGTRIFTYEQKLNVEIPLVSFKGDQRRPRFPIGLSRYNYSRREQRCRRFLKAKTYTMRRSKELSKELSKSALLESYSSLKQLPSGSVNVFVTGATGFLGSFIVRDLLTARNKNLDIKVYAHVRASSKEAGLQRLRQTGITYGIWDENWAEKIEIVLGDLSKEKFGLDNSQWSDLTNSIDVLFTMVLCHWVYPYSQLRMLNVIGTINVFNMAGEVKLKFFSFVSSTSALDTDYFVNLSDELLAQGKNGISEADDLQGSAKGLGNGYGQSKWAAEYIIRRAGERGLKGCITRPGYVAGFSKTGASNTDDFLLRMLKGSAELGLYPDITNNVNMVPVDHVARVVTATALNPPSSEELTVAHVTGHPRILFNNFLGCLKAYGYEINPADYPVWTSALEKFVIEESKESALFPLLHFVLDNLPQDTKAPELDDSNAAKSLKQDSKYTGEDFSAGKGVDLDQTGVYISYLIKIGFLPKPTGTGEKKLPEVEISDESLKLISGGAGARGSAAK
Method: (§1) Cells were grown in appropriate media at 30° C. with constant shaking and harvested during the late logarithmic phase. Crude enzyme preparations were obtained by disruption of the cells in a Braun homogenizer flask in the case of S. cerevisiae (Sinha and Bhattacharjee 1971), and by vortexing with glass beads for 30 s with 30 s intervals at 4° C. for a total of 5 mins in case of C. albicans. The crude extracts were dialyzed and used as the enzyme source for the AAR activity. The amount of protein in the dialyzed extracts was determined according to the procedure of Bradford (1976).
The AAR activity was assayed using previously described procedure (Sagisaka and Shimura 1962). The reaction mixture consisted of DL aminoadipate, 12.5 mM; ATP, 15 mM; MgCl2, 10 mM; reduced glutathione, 1 mM; α-NADPH (tetra sodium salt), 0.625 mM; and Tris HCl, 250 mM (pH8.0). Dialysed cell extract was added to a final concentration of 0.02-1.0 mg of dialyzed protein. Tubes lacking aminoadipate were used as controls. The reaction mixtures were incubated at 30 ° C. for 1 h and terminated by the addition of Iml of 2% p-dimethylaminobenzaldehyde (PDAB) in 2-methoxyethanol. Activity of AAR was reported in units of A460 h-^1 mg protein-^1.
Feedback inhibition by the end product, lysine, was determined by addition of various concentrations of lysine to the reaction mixture. 50 mM lysine inhibited the AAR activity by 70%. However, when a lysine analog, [S-(2-amino ethyl)] L-Cysteine L-thialysine), was used, 1 mM thialysine was sufficient to abolish 92% of the enzyme activity (Table 5).

[2] = tested on: AAR of C. albicans WT 9517 cells; assay: AAR activity of cells grown in different media; type: cell-based
Method: Yeast strains were maintained on yeast extract-peptone-dextrose medium (YEPD). Minimal medium (MM) consisted of 1% dextrose and 0.67% yeast nitrogen base without amino acid. Minimal medium was supplemented with L-lysine (50 μg/ml) where appropriate. Escherichia coli strains were maintained on Luria Bertani medium. Plasmid containing strains were maintained in L-agar containing ampicillin at a concentration of 50 μg/ml.
as §1
The AAR activity was assayed using previously described procedure (Sagisaka and Shimura 1962). […]
The AAR activity of C. albicans WT 9517 cells was determined for cells grown in minimal medium, minimal medium supplemented with lysine, and YEPD. […]

[3] = tested on: LYS2 mRNA; assay: Northern blot analysis of LYS2 mRNA; type: cell-based; details: C. albicans WT9517 grown in minimal medium supplemented with lysine
Method: Total RNA was isolated from C. albicans WA95 17 cells grown in different media according to the procedure described by Sherman et al. (1986). Total RNA (20 μg/lane) was fractionated by electrophoresis on a 1% agarose gel, transferred to nylon membranes, and hybridized to LYS2 gene and 18 s rDNA radio-labelled probes. The 2.0 kb EcoRI PstI fragment of the LYS2 gene was labelled with [a^32P]DTP by a random primer kit (Gibco BRL) and used as a probe. A plasmid carrying the 18S rDNA was also labeled similarly and used as ribosomal probe. Hybridization was carried out at 60° C. in 0.5 M Sodium phosphate (pH 7.2), 7% SDS, 1% BSA, 1 mM EDTA (pH 8.0). The membrane was washed in 2×SSC and 0.1% SDS at room temperature for 30 min and followed by a wash in 0.5×SSC and 0.1% SDS at 60° C. for 30 min. The membrane was stripped by boiling in 0.1×SSC and 0.1% SDS for 30 min followed by washing with water at 65° C. for 30 min and then reprobed.
To determine if the LYS2 gene expression is controlled at the transcriptional level by lysine and by other amino acids in rich medium, total RNA was extracted from C. albicans WT9517 grown in minimal medium, minimal medium supplemented with lysine, and in YEPD medium. The blot was quantitated using a beta scanner and the AMBIS Image analysis software. […] The LYS2 mRNA level in YEPD grown cells could not be detected. […]

[4] = cell extract + 1 mM inhibitor in reaction mixture
[5] = cell extract + 10 mM inhibitor in reaction mixture

| inhibition at 1000 µM ([1]; 1 mM in reaction mixture, read-out: inhibition of AAR enzyme activity) | SMILES | AAR activity [1, 4] | AAR activity [1, 5] | AAR activity ([1]; cell extract + 50 mM inhibitor in reaction mixture) | inhibition at 50000 µM ([1]; read-out: inhibition of AAR activity) | repression of AAR activity compared to cells grown in minimal medium ([2]; cells grown in minimal medium supplemented with lysine) | AAR activity ([2]; cells grown in minimal medium supplemented with lysine (L-lysine 50 μg/ml), minimal medium alone 19.79) | level of LYS2 mRNA compared to cells grown in minimal medium [3] |
| --- | --- | --- | --- | --- | --- | --- | --- | --- |
| – | NCCCC[C@H](N)C(=O)O [lysine, L-lysine] | 19.34 A460 h^−1 mg protein^−1 | 9.68 A460 h^−1 mg protein^−1 | 5.92 A460 h^−1 mg protein^−1 | 70% | 40% | 11.87 A460 h^−1 mg protein^−1 | significantly lower |
| 92% | NCCSC[C@H](N)C(=O)O [thialysine, [S-(2-amino ethyl)] L-Cysteine] | 3.58 A460 h^−1 mg protein^−1 | 1.78 A460 h^−1 mg protein^−1 | – | – | – | – | – |
